Laboratory results as given in PMC5530453, “Anti-Parkinson Drug Biperiden Inhibits Enzyme Acetylcholinesterase” (BioMed Research International, 2017).

Target: Acetylcholinesterase (AChE) (Electrophorus electricus, UniProt O42275)
Experiment: Ellman's assay with purchased electric eel AChE, Dixon plot
Type: biochemical

Sequence of Acetylcholinesterase (AChE) (O42275 24-633): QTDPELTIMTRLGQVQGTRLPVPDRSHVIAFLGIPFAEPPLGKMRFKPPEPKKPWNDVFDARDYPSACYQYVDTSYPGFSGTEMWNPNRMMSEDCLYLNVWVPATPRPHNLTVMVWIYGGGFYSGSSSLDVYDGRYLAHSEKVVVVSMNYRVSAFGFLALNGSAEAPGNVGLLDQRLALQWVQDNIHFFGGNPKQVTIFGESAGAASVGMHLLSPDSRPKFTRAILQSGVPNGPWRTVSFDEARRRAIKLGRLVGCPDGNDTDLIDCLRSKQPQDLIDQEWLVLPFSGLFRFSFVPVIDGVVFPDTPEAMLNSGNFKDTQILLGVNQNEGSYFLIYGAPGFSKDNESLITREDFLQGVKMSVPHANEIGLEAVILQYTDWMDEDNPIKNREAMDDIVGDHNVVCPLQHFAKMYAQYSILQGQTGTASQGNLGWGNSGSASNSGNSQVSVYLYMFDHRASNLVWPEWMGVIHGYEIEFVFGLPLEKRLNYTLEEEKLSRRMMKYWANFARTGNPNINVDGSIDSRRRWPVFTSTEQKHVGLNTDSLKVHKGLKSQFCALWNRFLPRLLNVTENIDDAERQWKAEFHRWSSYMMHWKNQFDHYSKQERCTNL

OC(CCN1CCCCC1)(c1ccccc1)C1CC2C=CC1C2 (stereo not drawn) [Biperiden, alpha-bicyclo[2.2.1]hept-5-en-2-yl-alpha-phenyl-1-piperidinepropanol]
Ki: 1110 ± 200 µM
